The text below walks through data of PubChem BioAssay AID2305 (GlaxoSmithKline (GSK), 2010).

For orientation: IC50 means the concentration at which inhibition is half-maximal. Read a low IC50 as higher potency.

Several values for one entry are separate records, joined by “and”; a condition that tells them apart may be missing. Equal values may be shown once.

The test system of this assay is P. falciparum 3D7 growth, pLDH absorbance. In words: blood-stage malaria parasite growth potency – strain 3D7, dose response (AID 2305).
On to `O=C(CNC(=O)c1ccc(O)cc1)Nc1cccc(-c2cccc(-c3nc4ccc(C(F)(F)F)cc4[nH]3)c2)c1`, for which the IC50 was determined as 1040 nM. In other words, the single-digit micromolar range.

With `COc1ccc2nccc([C@@H](O)CN3CCC(NC(=O)Cc4cccc5c(Br)cccc45)CC3)c2c1`, the IC50 was determined as 800 nM.

As for `O=S(=O)(c1c(Cl)cc(Cl)cc1Cl)N1CCCCC(c2ccc(F)c(F)c2)=N1`, the IC50 turned out to be 590 nM.

In turn, `COc1ccc(C(=O)CCc2ccc(O)cc2)cc1` showed a half-inhibitory concentration (IC50) of 480 nM.

`CCOc1ccc(-c2nonc2NC(=O)c2ccco2)cc1OCC` yielded an IC50 of 750 nM.

For `NC(N)=NN=Cc1cc([N+](=O)[O-])ccc1Sc1ccccc1CO`, the IC50 was 1460 nM.

Molecule `Cc1cc(NN=Cc2cccc(Cl)c2)c2cc(F)ccc2n1` returned an IC50 of 760 nM.

`CCCCNC(=O)C(C)NC(=O)c1ccc(O)c(-c2ccc(Cl)c(Cl)c2)c1` (stereo not given) showed an IC50 of 820 nM.

Turning to `Cc1cccc2nc(C(=O)Nc3nc(CN4CCC(C)CC4)cs3)cn12`, the IC50 was found to be 760 nM.

The molecule `CCC(C)c1ccc(NC(=O)c2ccc(S(=O)(=O)Nc3ccc(OC)c(N4CCN(CC5CC5)CC4)c3)cc2)cc1` (stereo not given) came in with an IC50 of 700 nM.

`CCCCC1(NC(=O)[C@@H](Nc2ccc(C#N)c3ccccc23)C2CCCCC2)CCCCC1`: the IC50 turned out to be 1120 nM.

Molecule `CC(C)(C)c1ccc(S(=O)(=O)Nc2ccccc2N2CCOCC2)cc1` showed an IC50 of 680 nM.

Molecule `COc1ccccc1-c1csc(C(=O)NC2CCCCN(Cc3ccc(C(C)(C)C)cc3)C2)c1` (stereo not given) displayed an IC50 of 1530 nM.

In turn, `O=C(Cn1c(SCc2cccc(F)c2F)cc(=O)c2ccccc21)N(CCc1cnc[nH]1)Cc1ccc(-c2ccc(C(F)(F)F)cc2)cc1` yielded an IC50 of 800 nM. This IC50 is about 1.9-fold lower than that of the molecule before.

With `N[C@@H](Cc1cc(I)c(Oc2ccc(O)c(C(=O)O)c2)c(I)c1)C(=O)O`, the concentration for half-maximal inhibition (IC50) was determined as 990 nM. The IC50 values of the last two molecules are within 1.5-fold of each other.

For `CCc1cc2c(O)c([N+](=O)[O-])c(=O)oc2cc1OCCCCCOc1cc2oc(=O)c([N+](=O)[O-])c(O)c2cc1CC`, the IC50 was determined as 260 nM.

The molecule `COCC(C)n1c(SC(C)C(=O)Nc2cc([N+](=O)[O-])ccc2Cl)nc2ccccc2c1=O` (stereo not given) registered a concentration for half-maximal inhibition (IC50) of 230 nM.

As for `Cc1ccc(N(CCC(=N)N)Cc2ccccc2)cc1`, the IC50 stood at 660 nM.

For the molecule `N[C@@H](Cc1cc(I)c(Oc2ccc(O)c(Cl)c2)c(I)c1)C(=O)O`, the half-inhibitory concentration (IC50) came out at 990 nM.

In the case of `COc1ccccc1C1CC(c2ccccc2)=NN1C(=O)c1ccccc1` (stereo not given), the IC50 is 300 nM.

The molecule `O=C(/C=C/c1ccc(Cl)c(Cl)c1)NC1CCN(CCCNC(=O)c2cccc(Cl)c2)CC1` had an IC50 of 660 nM.

`CCOC(=O)c1ccc(NC(=O)Nc2cccc(-c3cccc(-c4nc5ccc(F)cc5[nH]4)c3)c2)cc1` had an IC50 of 90 nM.

Take `COc1ccc2c(NN=Cc3ccc(N(C)C)cc3)ccnc2c1`: the IC50 was 660 nM.

Turning to `O=C(/C=C/c1ccc(Cl)c(Cl)c1)NCCCCCN1CC[C@H](NC(=O)Nc2ccc(Oc3ccccc3)cc2)C1`, the IC50 came to 700 nM. The IC50 values of the last two molecules are within 1.5-fold of each other.

`CCOC(=O)NCC(=O)Nc1cccc(-c2cccc(-c3nc4ccc(C(F)(F)F)cc4[nH]3)c2)c1`: the IC50 was found to be 630 nM. The IC50 values of the last two molecules are within 1.5-fold of each other.

For the molecule `O=C(Nc1ccc(-c2cccc(-c3nc4ccccc4[nH]3)c2)cc1)Nc1ccc2c(c1)OCO2`, the IC50 stood at 250 nM.

`CCN(CC)C(=NCCCCCCN=C(NC(N)=NCc1ccc(Cl)cc1)N(CC)CC)NC(N)=NCc1ccc(Cl)cc1` displayed an IC50 of 230 nM.

Molecule `CCCCCCOc1ccc(C(=O)N[C@H]2CCN(CCCCCNC(=O)/C=C/c3ccc(Cl)c(Cl)c3)C2)cc1` came in with an IC50 of 690 nM.

Take `CN(c1ccc2c(c1)nc(NCc1ccccc1)n2C)c1ccnc(Nc2ccc(CS(C)(=O)=O)cc2)n1`: the IC50 was determined as 840 nM.

On to `CN1CCN(c2cccc(-c3nnc(-c4ccc(OCC(=O)NCc5cccc(C(F)(F)F)c5)c([N+](=O)[O-])c4)o3)c2)CC1`, for which the IC50 came out at 960 nM.

The molecule `FC(F)(F)c1ccc2nccc(NN=Cc3ccccc3Cl)c2c1` returned an IC50 of 800 nM.

In turn, `Cc1ccc(-c2cc3nc4c(c(NCCCn5ccnc5)n3n2)CCC4)cc1` returned a half-maximal inhibitory concentration (IC50) of 920 nM.

`COC(=O)c1cccc(CNCc2ccc(-c3ccc(-c4nc5ccc(C(F)(F)F)cc5[nH]4)s3)cc2)c1` showed an IC50 of 160 nM.

As to `CC(C)OC(=O)c1ccc(NC(=O)N[C@@H](Cc2ccc(O)cc2)C(=O)NC2CCC(CCN3[C@@H]4CC[C@H]3c3ccccc34)CC2)cc1` (stereo not given in full), the IC50 is 830 nM.

Consider `COCCn1c(-c2nc(-c3ccc(F)cc3)cnc2N)nc2ccccc21`, for which the IC50 came out at 870 nM.

`O=C(Nc1ccccc1)c1ccc(N2CCC(COc3cccc(C(F)(F)F)c3)CC2)nc1` showed an IC50 of 300 nM.

In turn, `CCN(CC)CCN(Cc1ccc(-c2ccc(C(F)(F)F)cc2)cc1)C(=O)Cn1c(CCc2cccc(F)c2F)cc(=O)cc1-c1ccccc1` registered an IC50 of 780 nM.

`N=c1n(CCN2CCCC2)c2ccccc2n1CC(O)c1ccc(Cl)c(Cl)c1` (stereo not given): the IC50 was determined as 280 nM. This IC50 lies about 2.8-fold lower than the previous one.

As for `NC(N)=NN=CC(=O)Nc1cc([N+](=O)[O-])cc([N+](=O)[O-])c1`, the half-maximal inhibitory concentration (IC50) stood at 630 nM.

`O=C(Cn1c(CCc2cccc(F)c2F)cc(=O)c2ccccc21)N(Cc1ccc(-c2ccc(C(F)(F)F)cc2)cc1)C1CCN(CCN2CCOCC2)CC1` registered an IC50 of 720 nM.

For the molecule `Oc1cc2c(cc1CN1CCN(Cc3ccccc3)CC1)CCC2`, the IC50 came out at 720 nM.

Molecule `CCN(CC)S(=O)(=O)c1ccc(C(C)NC(=O)c2ccccc2COc2ccccc2)cc1` (stereo not given) returned an IC50 of 330 nM.

As to `CNS(=O)(=O)c1ccc(NC(=O)c2cc(-c3cccnc3)nc3ccc(Br)cc23)cc1`, the IC50 stood at 910 nM.

The molecule `COc1ccc2nc(C)cc(NCc3cccc4ccccc34)c2c1` returned an IC50 of 220 nM. Compared with the last molecule, the IC50 is about 4.1-fold lower.

As for `Nc1ncnc2c1ncn2C(CO)Cc1ccc(O)cc1` (stereo not given), the IC50 is 1030 nM.

`O=C(Nc1cccc(-c2csc(NC(=O)c3ccc4ccccc4c3)n2)c1)c1ccc2ccccc2c1`: the IC50 amounted to 710 nM.

Regarding `COc1ccc(-c2cc3ncn(CC(=O)N4CCN(c5cccc(OC)c5)CC4)c(=O)c3s2)cc1`, the IC50 was found to be 1060 nM.

The molecule `CC(=O)Nc1cccc(C(=O)Nc2cccc(-c3cccc(-c4nc5ccccc5[nH]4)c3)c2)c1` registered an IC50 of 590 nM. Against the preceding molecule, the IC50 is about 1.8-fold lower.

Molecule `Fc1cc(CN2CCCC2)ccc1OCCCN1CCN(c2cccc(Cl)c2Cl)CC1` yielded a concentration for half-maximal inhibition (IC50) of 1040 nM.

In turn, `Cc1cccc2c3c([nH]c12)C1(CCN(CCc2ccccc2)CC1)NC(C(=O)NCc1ccccc1)C3` (stereo not given) came in with an IC50 of 1000 nM.

Turning to `CNC(=O)c1cc(S(=O)(=O)N2CCN(c3ccccn3)CC2)cs1`, the IC50 amounted to 670 nM.

Consider `CN1CCc2cc(NS(=O)(=O)c3ccc(-c4ccc(Cl)s4)cc3)c(N3CCCCC3)cc2CC1`, for which the IC50 turned out to be 730 nM.

Molecule `CS(=O)(=O)c1cccc(-c2cnc3[nH]cc(-c4ccc(CCC(=O)O)cc4)c3c2)c1` yielded an IC50 of 630 nM. This IC50 and that of the molecule before are within 1.5-fold of each other.

Molecule `CC(=O)c1ccc(NC(=O)Nc2ccc(N(C)c3ccnc(Nc4cccc(CS(C)(=O)=O)c4)n3)cc2)cc1` yielded an IC50 of 120 nM.

With `S=C(Nc1ccc2c(c1)OCCO2)NC1CCC(CN2CCC(c3c[nH]c4ccccc34)CC2)CC1` (stereo not given), the IC50 was 650 nM and 1000 nM.

`O=C(N[C@@H](CC1CCCCC1)C(=O)NCCN1CCOCC1)c1ccc(O)c(-c2ccc(Cl)c(Cl)c2)c1` returned an IC50 of 180 nM.

In turn, `CN(C)[C@@H]1C(=O)C(C(N)=O)=C(O)[C@@]2(O)C(=O)C3=C(O)c4c(O)ccc(C#Cc5ccccn5)c4C[C@H]3C[C@@H]12` yielded a half-maximal inhibitory concentration (IC50) of 760 nM.

`O=C([C@H]1C[C@@H]1c1ccccc1)N(Cc1ccc(-c2ccc(CNCCc3ccccc3)cc2)cc1)C1CCNCC1` gave an IC50 of 1110 nM.

`OC1(c2ccccc2)c2cc(Cl)ccc2OC1c1nc2c(Cl)ccc(Cl)c2o1` (stereo not given): the concentration for half-maximal inhibition (IC50) was determined as 300 nM.

In turn, `O=C(Nc1ccc(Cl)cc1)Nc1cccc(-c2cc(CNCCc3ccccc3)oc2-c2ccncc2)c1` gave an IC50 of 280 nM.

As for `CN(C)CCCN1C(=O)c2[nH]nc(-c3ccc(Cl)cc3O)c2C1c1ccc(Cl)cc1` (stereo not given), the IC50 was 760 nM. Compared with the last molecule, the IC50 is about 2.7-fold higher.

For `CCN(CC)C(=O)C1CCN(C(C(=O)N2CCN(CC(=O)N3CCCC3)CC2)c2cc3ccccc3o2)CC1` (stereo not given), the IC50 worked out at 710 nM.

Regarding `CC(=O)OC[C@H]1O[C@@H](C#Cc2ccccc2)[C@H](OC(C)=O)[C@@H](OC(C)=O)[C@@H]1OC(C)=O`, the IC50 was found to be 280 nM.

As to `c1ccc(-n2cncn2)cc1`, the IC50 amounted to 590 nM.

For `COc1ccc(Cl)cc1NC(=O)Nc1ccc2c(c1)CCN(C1CCC1)CC2`, the IC50 is 810 nM.

Molecule `Cn1cncc1C(=O)NC1CCN(c2ccnc(Nc3ccc(F)cc3)n2)C1` (stereo not given) yielded an IC50 of 830 nM.

Turning to `CC[C@H]1CN2CC[C@H]1C[C@@H]2[C@@H](O)c1cc(Cl)nc2ccc(OC)cc12`, the IC50 came to 60 nM. This IC50 lies about 14-fold lower than the previous one.

As to `O=C(c1ccc(Cl)c(Cl)c1)N1CCc2c([nH]c3ccccc23)C1CN1CCCC1` (stereo not given), the IC50 was 830 nM. This IC50 lies about 14-fold higher than the previous one.

In the case of `Cc1cc(CNCCCCCNCc2cccc([N+](=O)[O-])c2)ccc1O`, the IC50 is 780 nM.

For `Nc1ncnc2cc(-c3cccc(S(N)(=O)=O)c3)sc12`, the IC50 is 150 nM.

`CCCCN(CCCC)C(=O)CC(O)c1cc2c(Cl)cc(Cl)cc2c2cc(C(F)(F)F)ccc12` (stereo not given) gave an IC50 of 1210 nM.

Turning to `COc1cc2c(cc1N1CCN(C)CC1)N(C(=O)Nc1ccc(-c3ccncc3)c(Cl)c1Cl)CC2`, the IC50 was determined as 610 nM.

Take `COc1ccc(CCNCCCCCCNCCc2ccc(Cl)c3ccccc23)cc1OC`: the half-inhibitory concentration (IC50) amounted to 580 nM.

Molecule `Cc1nc(NCCc2cnc[nH]2)cc(NCc2ccccc2)n1` had an IC50 of 830 nM.

With `CC(C(=O)NC1CCN(c2ccnc(Nc3ccc(F)cc3)n2)C1)c1ccc(Cl)cc1` (stereo not given), the IC50 came out at 860 nM.

On to `COc1ccc(Cc2c(Cl)nc3nc(N)nc(N)c3c2C)c(OC)c1OC`, for which the IC50 is 720 nM.

`COc1cccc(NC(=O)N2CCOC(CCN3CCC4(CCc5ccccc54)CC3)(c3ccc(Cl)c(Cl)c3)C2)c1` (stereo not given) yielded an IC50 of 1010 nM.

Consider `CCOc1ccc(-c2nc(NC(=O)Cc3cccc(OC)c3)sc2C)cc1`, for which the IC50 worked out at 730 nM. The IC50 values of the last two molecules are within 1.5-fold of each other.

`Nc1c2c(nc3ccc(C(=O)Nc4ccc(Br)cc4)cc13)CCCC2`: the IC50 stood at 150 nM.

Regarding `CCn1c(-c2nonc2N)nc2c(-c3ccccc3)ncc(OCCCCNCCc3ncc[nH]3)c21`, the IC50 was 850 nM. This IC50 is about 5.7-fold higher than that of the molecule before.

`Cn1cnc2c(SCc3ccccc3OCc3ccccc3)ncnc21` displayed an IC50 of 920 nM.

`CN(c1ccc(NC(=O)Nc2cc(C(F)(F)F)ccc2F)cc1)c1ccnc(NCCN2CCCC2)n1` gave an IC50 of 1150 nM.

On to `O=C(/C=C/c1cccc(Cl)c1)N1CCC(C(O)CN2CCC3(CC2)CN(C(=O)/C=C/c2cccc(Cl)c2)c2ccccc23)CC1` (stereo not given), for which the IC50 worked out at 890 nM.

`Cc1cccc2[nH]c(-c3ccc(-c4cccc(CNC(C)C)c4)s3)nc12` yielded a concentration for half-maximal inhibition (IC50) of 230 nM. This IC50 is about 3.9-fold lower than that of the molecule before.

`C[C@@H](CC1CCCCC1)OC(=O)N(C)[C@H]1CCN(C#N)C1` gave an IC50 of 220 nM.
